Values joined by “and” are separate entries in the source; they are usually repeats but may differ in a detail not shown here. Identical values can stand only once.
Species: Rattus norvegicus
Assay: DrugMatrix - Regimen: Daily Repeat
Assay type: toxicity, organism-based, Sprague-Dawley
Set-up: regimen Daily Repeat, gender Male, age 6-8 weeks
Details: in vivo; for ABSOLUTE BASOPHIL / ABSOLUTE EOSINOPHIL / ABSOLUTE LYMPHOCYTE / ABSOLUTE MONOCYTE / ABSOLUTE SEGMENTED NEUTROPHIL / HEMOGLOBIN / MEAN CORPUSCULAR HEMOGLOBIN / MEAN CORPUSCULAR VOLUME / BASOPHIL / EOSINOPHIL / ERYTHROCYTE COUNT / HEMATOCRIT / LEUKOCYTE COUNT / LYMPHOCYTE / MEAN CORPUSCULAR HEMOGLOBIN CONCENTRATION / MONOCYTE / NEUTROPHIL / PLATELET COUNT / NUCLEATED RED BLOOD CELLS: tissue Blood
[1] = ip, 40 mg/kg, 120 h, tissue Plasma, route intraperitoneal, dose level High, time 5 day, vehicle 100 % SALINE
[2] = ip, 40 mg/kg, […], route intraperitoneal, dose level High, time 14 day, vehicle 100 % SALINE
[3] = ip, 40 mg/kg, […], route intraperitoneal, dose level High, time 28 day, vehicle 100 % SALINE
[4] = ip, 40 mg/kg, […], tissue Plasma, route intraperitoneal, dose level High, time 14 day, vehicle 100 % SALINE
[5] = ip, 40 mg/kg, […], tissue Plasma, route intraperitoneal, dose level High, time 28 day, vehicle 100 % SALINE
[6] = sc, 34 mg/kg, 72 h, route subcutaneous, dose level Low, time 3 day, […]
[7] = sc, 34 mg/kg, 72 h, tissue Plasma, route subcutaneous, dose level Low, time 3 day, […]
[8] = sc, 34 mg/kg, 120 h, route subcutaneous, dose level Low, time 5 day, […]
[9] = sc, 34 mg/kg, 120 h, tissue Plasma, route subcutaneous, dose level Low, time 5 day, […]

GENTAMICIN
LIPASE [1]: 13.6 u/L and 7.25 u/L
PHOSPHORUS [1]: 12.05 mg/dL
POTASSIUM [1]: 5.95 MEQ/L
SODIUM [1]: 150.75 MEQ/L
TOTAL BILIRUBIN [1]: 0.18 mg/dL and 0.33 mg/dL
TOTAL PROTEIN [1]: 5.74 G/DL and 6.48 G/DL
URIC ACID [1]: 0.96 mg/dL
ABSOLUTE BASOPHIL [2]: 72 cells/µL
ABSOLUTE EOSINOPHIL [2]: 92 cells/µL
ABSOLUTE LYMPHOCYTE [2]: 8980 cells/µL
ABSOLUTE MONOCYTE [2]: 190 cells/µL
ABSOLUTE SEGMENTED NEUTROPHIL [2]: 1000 cells/µL
HEMOGLOBIN [2]: 15.3 G/DL
MEAN CORPUSCULAR HEMOGLOBIN [2]: 19.4 pg
MEAN CORPUSCULAR VOLUME [2]: 59.54 fL
ABSOLUTE BASOPHIL [3]: 99 cells/µL
ABSOLUTE EOSINOPHIL [3]: 110 cells/µL
ABSOLUTE LYMPHOCYTE [3]: 11600 cells/µL
ABSOLUTE MONOCYTE [3]: 260 cells/µL
ABSOLUTE SEGMENTED NEUTROPHIL [3]: 1950 cells/µL
BASOPHIL [3]: 0.7%
EOSINOPHIL [3]: 0.81%
ERYTHROCYTE COUNT [3]: 8.29 x10E6/uL
HEMATOCRIT [3]: 46.05%
HEMOGLOBIN [3]: 15.27 G/DL
LEUKOCYTE COUNT [3]: 14.13 x10E3/uL
LYMPHOCYTE [3]: 82.22%
MEAN CORPUSCULAR HEMOGLOBIN [3]: 18.44 pg
MEAN CORPUSCULAR HEMOGLOBIN CONCENTRATION [3]: 33.17 G/DL
MEAN CORPUSCULAR VOLUME [3]: 55.59 fL
MONOCYTE [3]: 1.82%
NEUTROPHIL [3]: 14.01%
PLATELET COUNT [3]: 1416.3 x10E3/uL
CARBON DIOXIDE [4]: 25.75 mmol/L
CHLORIDE [4]: 107 MEQ/L
SODIUM [4]: 150 MEQ/L
ALANINE AMINOTRANSFERASE [5]: 32.3 u/L
ALBUMIN [5]: 3.62 G/DL
ALKALINE PHOSPHATASE [5]: 139.3 u/L
ASPARTATE AMINOTRANSFERASE [5]: 96 u/L
BLOOD UREA NITROGEN [5]: 14.9 mg/dL
CHOLESTEROL [5]: 65.3 mg/dL
CREATINE PHOSPHOKINASE [5]: 320.4 u/L
CREATININE [5]: 0.65 mg/dL
LACTATE DEHYDROGENASE [5]: 119.4 u/L
LIPASE [5]: 11 u/L
PHOSPHORUS [5]: 9.46 mg/dL
POTASSIUM [5]: 6.33 MEQ/L
TOTAL BILIRUBIN [5]: 0.17 mg/dL
TOTAL PROTEIN [5]: 6.66 G/DL
URIC ACID [5]: 1.24 mg/dL
ABSOLUTE BASOPHIL [6]: 0 CELLS/uL
ABSOLUTE EOSINOPHIL [6]: 60.67 CELLS/uL
ABSOLUTE LYMPHOCYTE [6]: 14515.67 CELLS/uL
ABSOLUTE MONOCYTE [6]: 63 CELLS/uL
ABSOLUTE SEGMENTED NEUTROPHIL [6]: 1227.33 CELLS/uL
BASOPHIL [6]: 0%
EOSINOPHIL [6]: 0.33%
ERYTHROCYTE COUNT [6]: 5.19 x10E6/uL
HEMATOCRIT [6]: 32.97%
HEMOGLOBIN [6]: 12.73 G/DL
LEUKOCYTE COUNT [6]: 15.87 x10E3/uL
LYMPHOCYTE [6]: 91.67%
MEAN CORPUSCULAR HEMOGLOBIN [6]: 24.57 pg
MEAN CORPUSCULAR HEMOGLOBIN CONCENTRATION [6]: 38.63 G/DL
MEAN CORPUSCULAR VOLUME [6]: 63.57 fL
MONOCYTE [6]: 0.33%
NEUTROPHIL [6]: 7.67%
NUCLEATED RED BLOOD CELLS [6]: 0 /100WBC
PLATELET COUNT [6]: 1222.33 x10E3/uL
ALANINE AMINOTRANSFERASE [7]: 55.67 u/L
ALBUMIN [7]: 4 G/DL
ALKALINE PHOSPHATASE [7]: 327 u/L
ASPARTATE AMINOTRANSFERASE [7]: 105 u/L
BLOOD UREA NITROGEN [7]: 14.67 mg/dL
CARBON DIOXIDE [7]: 20.67 mmol/L
CHLORIDE [7]: 107.33 MEQ/L
CHOLESTEROL [7]: 82 mg/dL
CREATINE PHOSPHOKINASE [7]: 574.67 u/L
CREATININE [7]: 0.29 mg/dL
GLUCOSE [7]: 196.33 mg/dL
LACTATE DEHYDROGENASE [7]: 268.67 u/L
LIPASE [7]: 11.33 u/L
POTASSIUM [7]: 6.59 MEQ/L
SODIUM [7]: 147.27 MEQ/L
TOTAL BILIRUBIN [7]: 0.2 mg/dL
TOTAL PROTEIN [7]: 5.7 G/DL
ABSOLUTE BASOPHIL [8]: 0 CELLS/uL
ABSOLUTE EOSINOPHIL [8]: 0 CELLS/uL
ABSOLUTE LYMPHOCYTE [8]: 14029.67 CELLS/uL
ABSOLUTE MONOCYTE [8]: 90.67 CELLS/uL
ABSOLUTE SEGMENTED NEUTROPHIL [8]: 1246.33 CELLS/uL
BASOPHIL [8]: 0%
EOSINOPHIL [8]: 0%
ERYTHROCYTE COUNT [8]: 5.74 x10E6/uL
HEMOGLOBIN [8]: 13.5 G/DL
LEUKOCYTE COUNT [8]: 15.37 x10E3/uL
LYMPHOCYTE [8]: 91%
MEAN CORPUSCULAR HEMOGLOBIN [8]: 23.57 pg
MEAN CORPUSCULAR HEMOGLOBIN CONCENTRATION [8]: 36.03 G/DL
MONOCYTE [8]: 0.67%
NEUTROPHIL [8]: 8.33%
NUCLEATED RED BLOOD CELLS [8]: 0 /100WBC
PLATELET COUNT [8]: 1310.33 x10E3/uL
ALANINE AMINOTRANSFERASE [9]: 46.33 u/L
ALBUMIN [9]: 4.2 G/DL
ALKALINE PHOSPHATASE [9]: 391.33 u/L
ASPARTATE AMINOTRANSFERASE [9]: 95.33 u/L
CARBON DIOXIDE [9]: 24 mmol/L
CHLORIDE [9]: 106.67 MEQ/L
CHOLESTEROL [9]: 71 mg/dL
CREATINE PHOSPHOKINASE [9]: 308.33 u/L
CREATININE [9]: 0.18 mg/dL
LACTATE DEHYDROGENASE [9]: 196.33 u/L
PHOSPHORUS [9]: 13.37 mg/dL
POTASSIUM [9]: 7.64 MEQ/L
TOTAL BILIRUBIN [9]: 0.2 mg/dL

— ChEMBL document CHEMBL3885881, “DrugMatrix”
